The series has as its system CCRIS mutagenicity, Ames/micronucleus/aberration tests. In words: CCRIS mutagenicity studies.
Setting [1] is: Test System: AMES SALMONELLA TYPHIMURIUM, Strain/Indicator: TA98, Metabolic Activation: NONE, Method: STANDARD PLATE.
Setting [2] is: Test System: AMES SALMONELLA TYPHIMURIUM, Strain/Indicator: TA100, Metabolic Activation: NONE, Method: STANDARD PLATE.
The mark [3] stands for this setting: Test System: AMES SALMONELLA TYPHIMURIUM, Strain/Indicator: TA1535, Metabolic Activation: NONE, Method: STANDARD PLATE.
Setting [4] is: Test System: AMES SALMONELLA TYPHIMURIUM, Strain/Indicator: TA1537, Metabolic Activation: NONE, Method: STANDARD PLATE.
Setting [5] is: Test System: AMES SALMONELLA TYPHIMURIUM, Strain/Indicator: TA98, Metabolic Activation: RAT, LIVER, S-9, AROCLOR 1254, Method: STANDARD PLATE.
Where [6] appears, read: Test System: AMES SALMONELLA TYPHIMURIUM, Strain/Indicator: TA100, Metabolic Activation: RAT, LIVER, S-9, AROCLOR 1254, Method: STANDARD PLATE.

The source made the active and inactive calls. How the calls were made is not given here.

This passage reports mutagenic call results from PubChem BioAssay AID1259407 (Chemical Carcinogenesis Research Information System (CCRIS), 2018).

Regarding `NCCc1c[nH]c2ccc(O)cc12` (tested in a mixture with another compound), the mutagenic call (Test System: AMES SALMONELLA TYPHIMURIUM, Strain/Indicator: TA97A, Metabolic Activation: NONE, Method: STANDARD PLATE) was “inactive; negative”; the mutagenic call (Test System: AMES SALMONELLA TYPHIMURIUM, Strain/Indicator: TA97A, Metabolic Activation: RAT LIVER S-9, PHENOBARBITOL/BETA-NAPHTHOFLAVONE, Method: STANDARD PLATE) is “inactive; negative”; the mutagenic call under setting [1] is “inactive; negative”; the mutagenic call (Test System: AMES SALMONELLA TYPHIMURIUM, Strain/Indicator: TA98, Metabolic Activation: RAT LIVER S-9, PHENOBARBITOL/BETA-NAPHTHOFLAVONE, Method: STANDARD PLATE) is “inactive; negative”; the mutagenic call under setting [2] was “inactive; negative”; the mutagenic call (Test System: AMES SALMONELLA TYPHIMURIUM, Strain/Indicator: TA100, Metabolic Activation: RAT LIVER S-9, PHENOBARBITOL/BETA-NAPHTHOFLAVONE, Method: STANDARD PLATE) is “inactive; negative”. For the same compound, the mutagenic call is, setting by setting: under setting [3], “inactive; negative”; (Test System: AMES SALMONELLA TYPHIMURIUM, Strain/Indicator: TA1535, Metabolic Activation: RAT LIVER S-9, PHENOBARBITOL/BETA-NAPHTHOFLAVONE, Method: STANDARD PLATE) “inactive; negative”; under setting [4], “inactive; negative”; (Test System: AMES SALMONELLA TYPHIMURIUM, Strain/Indicator: TA1537, Metabolic Activation: RAT LIVER S-9, PHENOBARBITOL/BETA-NAPHTHOFLAVONE, Method: STANDARD PLATE) “inactive; negative”; (Test System: E.COLI, Strain/Indicator: WP2/UVRA, Metabolic Activation: NONE, Method: STANDARD PLATE) “inactive; negative”; (Test System: E.COLI, Strain/Indicator: WP2/UVRA, Metabolic Activation: RAT LIVER S-9, PHENOBARBITOL/BETA-NAPHTHOFLAVONE, Method: STANDARD PLATE) “inactive; negative”.

As for `CCCCN(N=O)C(=O)OCC`, the mutagenic call was “active; positive” (Test System: AMES SALMONELLA TYPHIMURIUM, Strain/Indicator: TA98, Metabolic Activation: RAT, LIVER, S-9, KC500 OR PHENOBARBITAL, Method: LIQUID SUSPENSION) and “active; positive” (Test System: AMES SALMONELLA TYPHIMURIUM, Strain/Indicator: TA100, Metabolic Activation: RAT, LIVER, S-9, KC500 OR PHENOBARBITAL, Method: LIQUID SUSPENSION).

Consider `Cc1ccc([N+]#N)cc1`, for which the mutagenic call under setting [2] is “active; positive”; the mutagenic call (Test System: AMES SALMONELLA TYPHIMURIUM, Strain/Indicator: TA102, Metabolic Activation: NONE, Method: STANDARD PLATE) was “active; positive”; the mutagenic call (Test System: CHINESE HAMSTER V-79, Strain/Indicator: V-79/6-THIOGUANINE, Metabolic Activation: NONE) was “active; positive”.

Regarding `CC1(C)C2CCC3(CO3)C1C2` (centres undefined), the mutagenic call runs as follows: under setting [2], “inactive; negative”; under setting [3], “inactive; negative”.

On to `CC1(S(=O)(=O)O)CC(=O)c2ccccc2C1=O` (centres undefined) (tested in a mixture with another compound), for which the mutagenic call (Test System: AMES SALMONELLA TYPHIMURIUM, Strain/Indicator: TA98, Metabolic Activation: NONE, Method: SPIRAL ASSAY) was “inactive; negative”; the mutagenic call under setting [1] is “inactive; negative”; the mutagenic call (Test System: AMES SALMONELLA TYPHIMURIUM, Strain/Indicator: TA98, Metabolic Activation: RAT, LIVER, S-9, AROCLOR 1254, Method: SPIRAL ASSAY) was “inactive; negative”; the mutagenic call under setting [5] is “active; positive”; the mutagenic call (Test System: AMES SALMONELLA TYPHIMURIUM, Strain/Indicator: TA100, Metabolic Activation: NONE, Method: SPIRAL ASSAY) is “inactive; negative”; the mutagenic call under setting [2] is “inactive; negative”. In addition, the mutagenic call by setting is: (Test System: AMES SALMONELLA TYPHIMURIUM, Strain/Indicator: TA100, Metabolic Activation: RAT, LIVER, S-9, AROCLOR 1254, Method: SPIRAL ASSAY) “inactive; negative”; under setting [6], “inactive; negative”; (Test System: AMES SALMONELLA TYPHIMURIUM, Strain/Indicator: TA1535, Metabolic Activation: NONE, Method: SPIRAL ASSAY) “inactive; negative”; under setting [3], “inactive; negative”; (Test System: AMES SALMONELLA TYPHIMURIUM, Strain/Indicator: TA1535, Metabolic Activation: RAT, LIVER, S-9, AROCLOR 1254, Method: SPIRAL ASSAY) “inactive; negative”; (Test System: AMES SALMONELLA TYPHIMURIUM, Strain/Indicator: TA1535, Metabolic Activation: RAT, LIVER, S-9, AROCLOR 1254, Method: STANDARD PLATE) “inactive; negative”. The mutagenic call (Test System: AMES SALMONELLA TYPHIMURIUM, Strain/Indicator: TA1537, Metabolic Activation: NONE, Method: SPIRAL ASSAY) is “inactive; negative”; the mutagenic call under setting [4] is “inactive; negative”; the mutagenic call (Test System: AMES SALMONELLA TYPHIMURIUM, Strain/Indicator: TA1537, Metabolic Activation: RAT, LIVER, S-9, AROCLOR 1254, Method: SPIRAL ASSAY) is “inactive; negative”; the mutagenic call (Test System: AMES SALMONELLA TYPHIMURIUM, Strain/Indicator: TA1537, Metabolic Activation: RAT, LIVER, S-9, AROCLOR 1254, Method: STANDARD PLATE) is “inactive; negative”.

As for `OCCBr`, the mutagenic call is, setting by setting: (Test System: AMES SALMONELLA TYPHIMURIUM, Strain/Indicator: TA97, Metabolic Activation: HAMSTER, LIVER, S-9, AROCLOR 1254 (10%), Method: PREINCUBATION) “inactive; negative”; (Test System: AMES SALMONELLA TYPHIMURIUM, Strain/Indicator: TA97, Metabolic Activation: NONE, Method: PREINCUBATION) “inactive; negative”; (Test System: AMES SALMONELLA TYPHIMURIUM, Strain/Indicator: TA97, Metabolic Activation: RAT, LIVER, S-9, AROCLOR 1254 (10%), Method: PREINCUBATION) “inactive; negative”; (Test System: AMES SALMONELLA TYPHIMURIUM, Strain/Indicator: TA98, Metabolic Activation: HAMSTER, LIVER, S-9, AROCLOR 1254 (10%), Method: PREINCUBATION) “inactive; negative”; (Test System: AMES SALMONELLA TYPHIMURIUM, Strain/Indicator: TA98, Metabolic Activation: NONE, Method: PREINCUBATION) “inactive; negative”; under setting [1], “inactive; negative”. Further, the mutagenic call was “inactive; negative” (Test System: AMES SALMONELLA TYPHIMURIUM, Strain/Indicator: TA98, Metabolic Activation: RAT, LIVER, S-9, AROCLOR 1254 (10%), Method: PREINCUBATION); “inactive; negative” under setting [5]; “active; positive” (Test System: AMES SALMONELLA TYPHIMURIUM, Strain/Indicator: TA100, Metabolic Activation: HAMSTER, LIVER, S-9, AROCLOR 1254 (10%), Method: PREINCUBATION); “active; positive” (Test System: AMES SALMONELLA TYPHIMURIUM, Strain/Indicator: TA100, Metabolic Activation: NONE, Method: PREINCUBATION); “active; positive” under setting [2]; “active; positive” (Test System: AMES SALMONELLA TYPHIMURIUM, Strain/Indicator: TA100, Metabolic Activation: RAT, LIVER, S-9, AROCLOR 1254 (10%), Method: PREINCUBATION). The mutagenic call was “active; positive” under setting [6]; “active; positive” (Test System: AMES SALMONELLA TYPHIMURIUM, Strain/Indicator: TA1535, Metabolic Activation: HAMSTER, LIVER, S-9, AROCLOR 1254 (10%), Method: PREINCUBATION); “active; positive” (Test System: AMES SALMONELLA TYPHIMURIUM, Strain/Indicator: TA1535, Metabolic Activation: NONE, Method: PREINCUBATION); “active; positive” (Test System: AMES SALMONELLA TYPHIMURIUM, Strain/Indicator: TA1535, Metabolic Activation: RAT, LIVER, S-9, AROCLOR 1254 (10%), Method: PREINCUBATION).

`Cn1c(NO)nc2ncc(-c3ccccc3)cc21`: the mutagenic call was “active; positive” (Test System: AMES SALMONELLA TYPHIMURIUM, Strain/Indicator: TA98(1,8-DNP6), Metabolic Activation: NONE, Method: STANDARD PLATE); “active; positive” under setting [1]; “active; positive” under setting [5].
